Reference: patent US9226916B2, “Pyrrolidine derivatives” (HOFFMANN-LA ROCHE INC., priority 2009, dated 2016)

biological target: T1, recombinant human NK3 receptor (Homo sapiens, UniProt P29371); test: [3H]SR142801 competition binding assay; conditions: not given
T1 construct: expressed in transfected cells; host or cells: HEK293 cells, transient expression; membranes
T1 sequence (P29371 1-465): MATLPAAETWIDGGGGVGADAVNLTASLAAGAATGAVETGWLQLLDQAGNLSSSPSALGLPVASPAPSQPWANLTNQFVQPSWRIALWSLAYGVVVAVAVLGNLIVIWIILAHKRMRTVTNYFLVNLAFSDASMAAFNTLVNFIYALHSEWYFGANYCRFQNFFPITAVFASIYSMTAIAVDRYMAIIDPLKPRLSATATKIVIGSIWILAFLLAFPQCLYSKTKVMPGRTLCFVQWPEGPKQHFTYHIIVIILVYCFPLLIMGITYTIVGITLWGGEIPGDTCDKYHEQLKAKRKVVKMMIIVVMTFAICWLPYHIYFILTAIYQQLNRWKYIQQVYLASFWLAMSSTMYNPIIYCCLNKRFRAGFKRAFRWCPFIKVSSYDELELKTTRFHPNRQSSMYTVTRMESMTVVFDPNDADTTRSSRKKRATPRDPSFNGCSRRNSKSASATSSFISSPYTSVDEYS

Question: How did the Ki turn out when `Cc1ccc(N2CCC(C(=O)N3C[C@@H](N(C)C(=O)O[C@H]4CC[C@H](C(F)(F)F)CC4)[C@H](c4ccc(Cl)c(Cl)c4)C3)CC2)nn1` [Example 160, {(3S,4R)-4-(3,4-Dichloro-phenyl)-1-[1-(6-methyl-pyridazin-3-yl)-piperidine-4-carbonyl]-pyrrolidin-3-yl}-methyl-carbamic acid 4-trifluoromethyl-cyclohexyl ester] was run?
Answer: The Ki was 0.5 nM.

Question: Which Ki does the source give for `CN(C(=O)Oc1ccc(F)cc1)[C@H]1CN(C(=O)[C@H]2CC[C@@](C)(O)CC2)C[C@@H]1c1ccc(Cl)c(Cl)c1` (racemic) [Example 53, rac-[(3R,4S)-4-(3,4-Dichloro-phenyl)-1-(cis-4-hydroxy-4-methyl-cyclohexanecarbonyl)-pyrrolidin-3-yl]-methyl-carbamic acid 4-fluoro-phenyl ester] here?
Answer: Its Ki is 4.7 nM.

Question: `CN(C(=O)Oc1ccc(F)cc1)[C@H]1CN(C(=O)C2CCN(C(=O)C3CCOCC3)CC2)C[C@@H]1c1ccc(Cl)c(Cl)c1` (racemic) [Example 76, rac-{(3R,4S)-4-(3,4-Dichloro-phenyl)-1-[1-(tetrahydro-pyran-4-carbonyl)-piperidine-4-carbonyl]-pyrrolidin-3-yl}-methyl-carbamic acid 4-fluoro-phenyl ester] was tested. Which Ki did it give?
Answer: Its Ki is 0.7 nM.

Question: `CN(C(=O)Oc1ccc(F)cc1)[C@@H]1CN(C(=O)C2CCN(C(=O)CC#N)CC2)C[C@H]1c1ccc(F)cc1` [Example 284, [(3S,4R)-1-[1-(2-Cyano-acetyl)-piperidine-4-carbonyl]-4-(4-fluoro-phenyl)-pyrrolidin-3-yl]-methyl-carbamic acid 4-fluoro-phenyl ester] was tested. Which Ki did it give?
Answer: The Ki was 31.1 nM.

Question: How did the Ki turn out when `CC(=O)c1ccc(N2CCC(C(=O)N3C[C@@H](N(C)C(=O)Oc4ccc(F)cc4)[C@H](c4ccc(Cl)c(F)c4)C3)CC2)nc1` [Example 314, [(3S,4R)-1-(5′-Acetyl-3,4,5,6-tetrahydro-2H-[1,2′]bipyridinyl-4-carbonyl)-4-(4-chloro-3-fluoro-phenyl)-pyrrolidin-3-yl]-methyl-carbamic acid 4-fluoro-phenyl ester] was run?
Answer: Its Ki is 0.6 nM.

Question: With `CN(C(=O)Oc1ccc(F)cc1)[C@@H]1CN(C(=O)C2CCN(c3ccc(C#N)nc3)CC2)C[C@H]1c1ccc(Cl)cc1` [Example 198, [(3S,4R)-4-(4-Chloro-phenyl)-1-(6′-cyano-3,4,5,6-tetrahydro-2H-[1,3]bipyridinyl-4-carbonyl)-pyrrolidin-3-yl]-methyl-carbamic acid 4-fluoro-phenyl ester] as the compound, how does the Ki read?
Answer: Its Ki is 0.5 nM.

Question: For `Cc1ccnc(N2CCC(C(=O)N3C[C@@H](N(C)C(=O)Oc4ccc(F)cc4)[C@H](c4ccc(Cl)cc4)C3)CC2)n1` [Example 167, {(3S,4R)-4-(4-Chloro-phenyl)-1-[1-(4-methyl-pyrimidin-2-yl)-piperidine-4-carbonyl]-pyrrolidin-3-yl}-methyl-carbamic acid 4-fluoro-phenyl ester], which Ki is on record?
Answer: The Ki was 4.9 nM.

Question: `COc1ccc(OC(=O)N(C)[C@@H]2CN(C(=O)C3CCN(CC4CC4)CC3)C[C@H]2c2ccc(Cl)c(Cl)c2)cc1` [Example 21, [(3S,4R)-1-(1-Cyclopropylmethyl-piperidine-4-carbonyl)-4-(3,4-dichloro-phenyl)-pyrrolidin-3-yl]-methyl-carbamic acid 4-methoxy-phenyl ester] was tested. Which Ki did it give?
Answer: The Ki was 10.4 nM.

Question: For `CN(C(=O)OCC1CCOCC1)[C@H]1CN(C(=O)C2CCN(C(=O)C3(C)CC3)CC2)C[C@@H]1c1ccc(Cl)c(Cl)c1` (racemic) [Example 31, rac-{(3R,4S)-4-(3,4-Dichloro-phenyl)-1-[1-(1-methyl-cyclopropanecarbonyl)-piperidine-4-carbonyl]-pyrrolidin-3-yl}-methyl-carbamic acid tetrahydro-pyran-4-ylmethyl ester], which Ki is on record?
Answer: Its Ki is 11.6 nM.

Question: Which Ki does the source give for `CN(C(=O)OCC(C)(C)C)[C@@H]1CN(C(=O)C2CCN(c3ccc(C#N)cn3)CC2)C[C@H]1c1ccc(Cl)cc1` [Example 205, [(3S,4R)-4-(4-Chloro-phenyl)-1-(5′-cyano-3,4,5,6-tetrahydro-2H-[1,2′]bipyridinyl-4-carbonyl)-pyrrolidin-3-yl]-methyl-carbamic acid 2,2-dimethyl-propyl ester] here?
Answer: The Ki was 5.7 nM.

Question: `Cc1cc(OC(=O)N(C)[C@@H]2CN(C(=O)C3CCN(C(=O)C4(C)CC4)CC3)C[C@H]2c2ccc(Cl)c(Cl)c2)cc(C)n1` [Example 294, {(3S,4R)-4-(3,4-Dichloro-phenyl)-1-[1-(1-methyl-cyclopropanecarbonyl)-piperidine-4-carbonyl]-pyrrolidin-3-yl}-methyl-carbamic acid 2,6-dimethyl-pyridin-4-yl ester] was tested. Which Ki did it give?
Answer: Its Ki is 11.2 nM.

Question: `CN(C(=O)Oc1ccc(F)cc1)[C@@H]1CN(C(=O)C2CCN(c3ccc(F)cn3)CC2)C[C@H]1c1ccc(Cl)c(Cl)c1` [Example 309, [(3S,4R)-4-(3,4-Dichloro-phenyl)-1-(5′-fluoro-3,4,5,6-tetrahydro-2H-[1,2′]bipyridinyl-4-carbonyl)-pyrrolidin-3-yl]-methyl-carbamic acid 4-fluoro-phenyl ester] was tested. Which Ki did it give?
Answer: The Ki was 0.5 nM.

Question: `CCCOC(=O)N(C)[C@@H]1CN(C(=O)C2CCN(c3ccc(C#N)cn3)CC2)C[C@H]1c1ccc(Cl)cc1` [Example 138, [(3S,4R)-4-(4-Chloro-phenyl)-1-(5′-cyano-3,4,5,6-tetrahydro-2H-[1,2′]bipyridinyl-4-carbonyl)-pyrrolidin-3-yl]-methyl-carbamic acid propyl ester] was tested. Which Ki did it give?
Answer: Its Ki is 37.1 nM.

same assay, conditions: hNK-3 receptor affinity; membranes from HEK293 cells transiently expressing recombinant human NK3 receptor; [3H]SR142801; Cheng-Prussoff; read-out: Data Ki

Question: With `CN(C(=O)OCCC1CC1)[C@H]1CN(C(=O)C2CCN(C(=O)C3(C)CC3)CC2)C[C@@H]1c1ccc(Cl)c(Cl)c1` [Example 35, {(3R,4S)-4-(3,4-Dichloro-phenyl)-1-[1-(1-methyl-cyclopropanecarbonyl)-piperidine-4-arbonyl]-pyrrolidin-3-yl}-methyl-carbamic acid 2-cyclopropyl-ethyl ester] as the compound, how does the Ki read?
Answer: Its Ki is 81.1 nM.

Question: How did the Ki turn out when `CN(C(=O)O[C@H]1CC[C@@H](C(F)(F)F)CC1)[C@H]1CN(C(=O)C2CCN(C(=O)C3(C)CC3)CC2)C[C@@H]1c1ccc(Cl)c(Cl)c1` [Example 107, {(3R,4S)-4-(3,4-Dichloro-phenyl)-1-[1-(1-methyl-cyclopropanecarbonyl)-piperidine-4-carbonyl]-pyrrolidin-3-yl}-methyl-carbamic acid 4-trifluoromethyl-cyclohexyl ester] was run?
Answer: The Ki was 58.6 nM.

Question: With `CC(OC(=O)N(C)[C@@H]1CN(C(=O)C2CCN(c3ccc(C#N)cn3)CC2)C[C@H]1c1ccc(Cl)cc1)C(F)(F)F` (stereo partly drawn) [Example 166, [(3S,4R)-4-(4-Chloro-phenyl)-1-(5′-cyano-3,4,5,6-tetrahydro-2H-[1,2′]bipyridinyl-4-carbonyl)-pyrrolidin-3-yl]-methyl-carbamic acid 2,2,2-trifluoro-1-methyl-ethyl ester] as the compound, how does the Ki read?
Answer: Its Ki is 36.4 nM.

Question: Which Ki does the source give for `CN(C(=O)OCCCC(F)(F)F)[C@H]1CN(C(=O)C2CCN(C(=O)C3(C)CC3)CC2)C[C@@H]1c1ccc(Cl)c(Cl)c1` [Example 81, {(3R,4S)-4-(3,4-Dichloro-phenyl)-1-[1-(1-methyl-cyclopropanecarbonyl)-piperidine-4-carbonyl]-pyrrolidin-3-yl}-methyl-carbamic acid 4,4,4-trifluoro-butyl ester] here?
Answer: Its Ki is 67 nM.
